Laboratory results: patent US20170232083A1, “METHODS OF DIAGNOSIS AND TREATMENT OF CELIAC DISEASE IN CHILDREN” (priority 2014, published 2017)

Test system: PBMC (polyclonal gluten-specific T cells) of paediatric and adult CD patients
Assay: IFN-γ ELISpot of PBMC after 3 day oral wheat challenge (SFU, % of maximal peptide response, dominance scores, EC50; Examples 5-6)
Format: cell-based, human
Settings: for Cross-reactive T cell response: following wheat challenge; for IFN-γ ELISpot response: after oral wheat challenge
[1] = subject I (3-5yrs/6-10yrs part)
[2] = subject J (3-5yrs/6-10yrs part)
[3] = subject K (3-5yrs/6-10yrs part)
[4] = subject V (3-5yrs/6-10yrs part)
[5] = subject W (3-5yrs/6-10yrs part)
[6] = subject Y (3-5yrs/6-10yrs part)
[7] = subject five (3-5yrs/6-10yrs part)
[8] = subject seven (3-5yrs/6-10yrs part)
[9] = subject six (3-5yrs/6-10yrs part)
[10] = subject ten (3-5yrs/6-10yrs part)
[11] = subject two (3-5yrs/6-10yrs part)
[12] = patient G, 11-17 yrs, cut-off 10 SFU
[13] = patient H, 11-17 yrs, cut-off 10 SFU
[14] = patient ID not given, 11-17 yrs, cut-off 10 SFU
[15] = patient P, 11-17 yrs, cut-off 21.6 SFU
[16] = patient Q, 11-17 yrs, cut-off 10 SFU
[17] = patient U, H, 11-17 yrs, cut-off 10 SFU
[18] = patient V, 6-10 yrs, cut-off 10 SFU
[19] = patient Y, 6-10 yrs, cut-off 10 SFU
[20] = patient eleven, 6-10 yrs, cut-off 10 SFU
[21] = patient four, 3-5yrs, cut-off 10 SFU
[22] = patient seven, 6-10 yrs, cut-off 10.5 SFU
[23] = patient ten, 3-5yrs, cut-off 10 SFU
[24] = patient three, 6-10 yrs, cut-off 10.5 SFU
[25] = patient two, 3-5yrs, cut-off 10 SFU
[26] = patient A, 11-17 yrs, cut-off 10 SFU
[27] = patient E, H, 11-17 yrs, cut-off 10 SFU
[28] = patient F, 11-17 yrs, cut-off 10 SFU
[29] = patient H (HLA-DQ2.5 homozygote), 3-5yrs, cut-off 10 SFU
[30] = patient N, 3-5yrs, cut-off 10 SFU
[31] = patient twelve, 11-17 yrs, cut-off 10 SFU
[32] = patient two, max peptide 60 SFU

## QLFPLPEQPFPQP
Subject A, 11-17yrs
  Cross-reactive T cell response: 2 SFU
Subject D, 11-17yrs
  Cross-reactive T cell response: 2 SFU
Subject E, 11-17yrs
  Cross-reactive T cell response: 2 SFU
Subject F, 11-17yrs
  Cross-reactive T cell response: 2 SFU
Subject G, 11-17yrs
  Cross-reactive T cell response: 0 SFU
Subject H
  Cross-reactive T cell response: 0 SFU
[1]
  Cross-reactive T cell response: 1 SFU
Subject J
  Significant response as a percentage of maximal peptide SFU: ′ (11-20% = ′)
[2]
  Cross-reactive T cell response: 26 SFU
[3]
  Cross-reactive T cell response: 5 SFU
Subject P, 11-17yrs
  Cross-reactive T cell response: 11 SFU
Subject Q, 11-17yrs
  Significant response as a percentage of maximal peptide SFU: ′ (11-20% = ′)
  Cross-reactive T cell response: 13 SFU
Subject T, 11-17yrs
  Significant response as a percentage of maximal peptide SFU: ′ (11-20% = ′)
  Cross-reactive T cell response: 13 SFU
Subject U, 11-17yrs
  Cross-reactive T cell response: 9 SFU
[4]
  Cross-reactive T cell response: 4 SFU
[5]
  Cross-reactive T cell response: 4 SFU
[6]
  Cross-reactive T cell response: 2 SFU
[7]
  Cross-reactive T cell response: 7 SFU
Subject nine, 11-17yrs
  Cross-reactive T cell response: 1 SFU
[8]
  Cross-reactive T cell response: 1 SFU
[9]
  Cross-reactive T cell response: 0 SFU
Subject ten
  Significant response as a percentage of maximal peptide SFU: + (>70% = +)
[10]
  Cross-reactive T cell response: 14 SFU
[11]
  Cross-reactive T cell response: 3 SFU

## GIIQPQQPAQL
[12]
  IFN-γ ELISpot response: 0 SFU
[13]
  IFN-γ ELISpot response: 1 SFU
[14]
  IFN-γ ELISpot response: 2 SFU
Patient II, max peptide 15 SFU
  Significant response as percentage of maximal peptide SFU: + (>70% = +)
Patient K, max peptide 53 SFU
  Significant response as percentage of maximal peptide SFU: ′′ (21-40% = ′′)
[15]
  IFN-γ ELISpot response: 7 SFU
[16]
  IFN-γ ELISpot response: 0 SFU
[17]
  IFN-γ ELISpot response: 4 SFU
[18]
  IFN-γ ELISpot response: 5 SFU
[19]
  IFN-γ ELISpot response: 2 SFU
[20]
  IFN-γ ELISpot response: 1 SFU
[21]
  IFN-γ ELISpot response: 0 SFU
[22]
  IFN-γ ELISpot response: 3 SFU
[23]
  IFN-γ ELISpot response: 5 SFU
[24]
  IFN-γ ELISpot response: 3 SFU
[25]
  IFN-γ ELISpot response: 0 SFU

## FPQPQQQFPQPQQ
[26]
  IFN-γ ELISpot response: 2 SFU
[27]
  IFN-γ ELISpot response: 12 SFU
Patient E, max peptide 224 SFU
  Significant response as percentage of maximal peptide SFU: (6-10% = ^)
[28]
  IFN-γ ELISpot response: 4 SFU
[12]
  IFN-γ ELISpot response: 1 SFU
[29]
  IFN-γ ELISpot response: 6 SFU
[13]
  IFN-γ ELISpot response: 5 SFU
[14]
  IFN-γ ELISpot response: 1 SFU
Patient II, max peptide 15 SFU
  Significant response as percentage of maximal peptide SFU: + (>70% = +)
[30]
  IFN-γ ELISpot response: 1 SFU
[15]
  IFN-γ ELISpot response: 4 SFU
[16]
  IFN-γ ELISpot response: 10 SFU
Patient Q, max peptide 97 SFU
  Significant response as percentage of maximal peptide SFU: ′ (11-20% = ′)
[17]
  IFN-γ ELISpot response: 4 SFU
[18]
  IFN-γ ELISpot response: 2 SFU
[19]
  IFN-γ ELISpot response: 6 SFU
[20]
  IFN-γ ELISpot response: 1 SFU
[21]
  IFN-γ ELISpot response: 5 SFU
[22]
  IFN-γ ELISpot response: 2 SFU
[23]
  IFN-γ ELISpot response: 4 SFU
[24]
  IFN-γ ELISpot response: 1 SFU
[31]
  IFN-γ ELISpot response: 5 SFU
[25]
  IFN-γ ELISpot response: 0 SFU

## PFPLQPEQPFPQP
[26]
  IFN-γ ELISpot response: 6 SFU
Patient D, max peptide 30.5 SFU
  Significant response as percentage of maximal peptide SFU: ′′′ (41-70% = ′′′)
[27]
  IFN-γ ELISpot response: 30 SFU
Patient E, max peptide 224 SFU
  Significant response as percentage of maximal peptide SFU: ′ (11-20% = ′)
[28]
  IFN-γ ELISpot response: 35 SFU
Patient F, max peptide 178 SFU
  Significant response as percentage of maximal peptide SFU: ′ (11-20% = ′)
[12]
  IFN-γ ELISpot response: 2 SFU
[29]
  IFN-γ ELISpot response: 24 SFU
[13]
  IFN-γ ELISpot response: 11 SFU
Patient H, max peptide 17 SFU
  Significant response as percentage of maximal peptide SFU: ′′′ (41-70% = ′′′)
[14]
  IFN-γ ELISpot response: 28 SFU
Patient ID not given, max peptide 95 SFU
  Significant response as percentage of maximal peptide SFU: ′′ (21-40% = ′′)
Patient II, max peptide 15 SFU
  Significant response as percentage of maximal peptide SFU: + (>70% = +)
Patient J, max peptide 196 SFU
  Significant response as percentage of maximal peptide SFU: ′′ (21-40% = ′′)
Patient K, max peptide 53 SFU
  Significant response as percentage of maximal peptide SFU: ′′′ (41-70% = ′′′)
Patient M, max peptide 48 SFU
  Significant response as percentage of maximal peptide SFU: ′′′ (41-70% = ′′′)
[30]
  IFN-γ ELISpot response: 7 SFU
[15]
  IFN-γ ELISpot response: 27 SFU
Patient P, max peptide 64 SFU
  Significant response as percentage of maximal peptide SFU: ′′′ (41-70% = ′′′)
[16]
  IFN-γ ELISpot response: 43 SFU
Patient Q, max peptide 97 SFU
  Significant response as percentage of maximal peptide SFU: ′′′ (41-70% = ′′′)
[17]
  IFN-γ ELISpot response: 23 SFU
Patient U, max peptide 81 SFU
  Significant response as percentage of maximal peptide SFU: ′′ (21-40% = ′′)
[18]
  IFN-γ ELISpot response: 21 SFU
Patient V, max peptide 35 SFU
  Significant response as percentage of maximal peptide SFU: ′′′ (41-70% = ′′′)
Patient W, max peptide 30 SFU
  Significant response as percentage of maximal peptide SFU: + (>70% = +)
[19]
  IFN-γ ELISpot response: 9 SFU
Patient eight, max peptide 12 SFU
  Significant response as percentage of maximal peptide SFU: + (>70% = +)
[20]
  IFN-γ ELISpot response: 8 SFU
Patient five, max peptide 48 SFU
  Significant response as percentage of maximal peptide SFU: + (>70% = +)
[21]
  IFN-γ ELISpot response: 22 SFU
Patient four, max peptide 44 SFU
  Significant response as percentage of maximal peptide SFU: ′′′ (41-70% = ′′′)
[22]
  IFN-γ ELISpot response: 27 SFU
Patient seven, max peptide 27 SFU
  Significant response as percentage of maximal peptide SFU: + (>70% = +)
[23]
  IFN-γ ELISpot response: 8 SFU
[24]
  IFN-γ ELISpot response: 52 SFU
[31]
  IFN-γ ELISpot response: 15 SFU
[25]
  IFN-γ ELISpot response: 24 SFU
[32]
  Significant response as percentage of maximal peptide SFU: ′′ (21-40% = ′′)

## TIPEQPEQPFPLQ
[26]
  IFN-γ ELISpot response: 0 SFU
[27]
  IFN-γ ELISpot response: 224 SFU
Patient E, max peptide 224 SFU
  Significant response as percentage of maximal peptide SFU: + (>70% = +)
[28]
  IFN-γ ELISpot response: 14 SFU
Patient F, max peptide 178 SFU
  Significant response as percentage of maximal peptide SFU: (6-10% = ^)
[12]
  IFN-γ ELISpot response: 2 SFU
[29]
  IFN-γ ELISpot response: 2 SFU
[13]
  IFN-γ ELISpot response: 4 SFU
[14]
  IFN-γ ELISpot response: 6 SFU
Patient J, max peptide 196 SFU
  Significant response as percentage of maximal peptide SFU: (6-10% = ^)
[30]
  IFN-γ ELISpot response: 3 SFU
[15]
  IFN-γ ELISpot response: 7 SFU
[16]
  IFN-γ ELISpot response: 8 SFU
[17]
  IFN-γ ELISpot response: 5 SFU
[18]
  IFN-γ ELISpot response: 0 SFU
[19]
  IFN-γ ELISpot response: 2 SFU
[20]
  IFN-γ ELISpot response: 3 SFU
[21]
  IFN-γ ELISpot response: 3 SFU
[22]
  IFN-γ ELISpot response: 1 SFU
[23]
  IFN-γ ELISpot response: 5 SFU
[24]
  IFN-γ ELISpot response: 18 SFU
[31]
  IFN-γ ELISpot response: 1 SFU
[25]
  IFN-γ ELISpot response: 11 SFU
[32]
  Significant response as percentage of maximal peptide SFU: ′ (11-20% = ′)

## PEQPFPEQPQPYPQQP
Subject A, 11-17yrs
  Cross-reactive T cell response: 2 SFU
Subject D, 11-17yrs
  Cross-reactive T cell response: 2 SFU
Subject E, 11-17yrs
  Significant response as a percentage of maximal peptide SFU: (6-10% - ^)
  Cross-reactive T cell response: 13 SFU
Subject F, 11-17yrs
  Cross-reactive T cell response: 6 SFU
Subject G, 11-17yrs
  Cross-reactive T cell response: 2 SFU
Subject H
  Cross-reactive T cell response: 6 SFU
[1]
  Cross-reactive T cell response: 2 SFU
Subject J
  Significant response as a percentage of maximal peptide SFU: ′ (11-20% = ′)
[2]
  Cross-reactive T cell response: 36 SFU
[3]
  Cross-reactive T cell response: 6 SFU
Subject P, 11-17yrs
  Cross-reactive T cell response: 10 SFU
Subject Q, 11-17yrs
  Cross-reactive T cell response: 2 SFU
Subject T, 11-17yrs
  Cross-reactive T cell response: 0 SFU
Subject U, 11-17yrs
  Cross-reactive T cell response: 1 SFU
[4]
  Cross-reactive T cell response: 1 SFU
[5]
  Cross-reactive T cell response: 9 SFU
[6]
  Cross-reactive T cell response: 1 SFU
[7]
  Cross-reactive T cell response: 1 SFU
Subject nine, 11-17yrs
  Cross-reactive T cell response: 1 SFU
[8]
  Cross-reactive T cell response: 4 SFU
[9]
  Cross-reactive T cell response: 5 SFU
Subject ten
  Significant response as a percentage of maximal peptide SFU: + (>70% = +)
[10]
  Cross-reactive T cell response: 12 SFU
[11]
  Cross-reactive T cell response: 1 SFU
